The values below come from ChEMBL document CHEMBL5465560, “Selectivity Literature for EUbOPEN Chemogenomic Library” (2024).

The subject of experiment [1] is Phosphatidylinositol 4,5-bisphosphate 3-kinase catalytic subunit alpha isoform (Homo sapiens), P42336 [E545K]. Particulars: at 10 µM.
The target in experiment [2] is Serine/threonine-protein kinase 24 (Homo sapiens) (UniProt Q9Y6E0). The experiment is described as follows: Selectivity interaction (KinomeScan (DiscoverX)) EUB0001619a STK24. Particulars: at 1 µM.
Sequence of Serine/threonine-protein kinase 24 (Homo sapiens) (Q9Y6E0 whole entry, looked up): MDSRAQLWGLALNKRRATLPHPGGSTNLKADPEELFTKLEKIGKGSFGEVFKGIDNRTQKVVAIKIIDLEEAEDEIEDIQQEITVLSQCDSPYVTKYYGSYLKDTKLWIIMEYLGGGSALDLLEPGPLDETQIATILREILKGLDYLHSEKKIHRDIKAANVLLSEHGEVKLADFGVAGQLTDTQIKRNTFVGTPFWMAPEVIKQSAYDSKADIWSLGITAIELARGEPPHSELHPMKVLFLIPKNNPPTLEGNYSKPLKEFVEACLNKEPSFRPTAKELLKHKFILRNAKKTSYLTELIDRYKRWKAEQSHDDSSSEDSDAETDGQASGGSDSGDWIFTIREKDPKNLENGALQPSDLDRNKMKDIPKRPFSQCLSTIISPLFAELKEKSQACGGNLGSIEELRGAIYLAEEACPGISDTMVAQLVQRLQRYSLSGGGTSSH
The target of experiment [3] is Ribosomal protein S6 kinase alpha-1 (Homo sapiens, UniProt Q15418). The experiment is described as follows: Selectivity interaction (ActivX KiNativ screen (ex vivo kinase selectivity in human PBMCs)) EUB0001619a RPS6KA1. Format: cell-based. The settings on record: PBMC, at 1 µM.
Sequence of Ribosomal protein S6 kinase alpha-1 (Q15418 whole entry): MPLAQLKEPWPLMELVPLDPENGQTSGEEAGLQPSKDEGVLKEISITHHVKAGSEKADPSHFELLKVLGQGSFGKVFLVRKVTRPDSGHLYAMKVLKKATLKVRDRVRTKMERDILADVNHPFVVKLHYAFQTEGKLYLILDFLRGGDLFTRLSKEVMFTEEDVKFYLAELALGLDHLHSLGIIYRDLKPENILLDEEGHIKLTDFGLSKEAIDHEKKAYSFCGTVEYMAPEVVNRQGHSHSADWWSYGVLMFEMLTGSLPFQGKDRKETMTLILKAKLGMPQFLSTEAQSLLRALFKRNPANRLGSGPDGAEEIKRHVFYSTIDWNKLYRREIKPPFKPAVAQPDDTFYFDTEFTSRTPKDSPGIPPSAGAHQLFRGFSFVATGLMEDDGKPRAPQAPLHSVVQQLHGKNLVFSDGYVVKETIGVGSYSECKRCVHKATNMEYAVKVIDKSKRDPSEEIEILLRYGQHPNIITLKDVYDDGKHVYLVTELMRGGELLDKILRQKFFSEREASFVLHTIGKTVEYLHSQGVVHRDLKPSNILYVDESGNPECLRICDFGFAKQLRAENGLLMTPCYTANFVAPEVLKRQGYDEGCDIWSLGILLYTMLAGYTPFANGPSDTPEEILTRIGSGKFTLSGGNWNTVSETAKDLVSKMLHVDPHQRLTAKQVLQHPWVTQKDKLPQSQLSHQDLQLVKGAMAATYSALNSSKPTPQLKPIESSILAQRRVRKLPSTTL
Experiment [4] concerns the target Ribosomal protein S6 kinase alpha-3 (Homo sapiens, UniProt P51812). Nature of the experiment: Selectivity interaction (KinomeScan (DiscoverX)) EUB0000666a RPS6KA3. Particulars: at 10 µM.
In experiment [5] the target is T1, Serine/threonine-protein kinase Sgk1 (Homo sapiens) (UniProt O00141).
T1 sequence (whole entry): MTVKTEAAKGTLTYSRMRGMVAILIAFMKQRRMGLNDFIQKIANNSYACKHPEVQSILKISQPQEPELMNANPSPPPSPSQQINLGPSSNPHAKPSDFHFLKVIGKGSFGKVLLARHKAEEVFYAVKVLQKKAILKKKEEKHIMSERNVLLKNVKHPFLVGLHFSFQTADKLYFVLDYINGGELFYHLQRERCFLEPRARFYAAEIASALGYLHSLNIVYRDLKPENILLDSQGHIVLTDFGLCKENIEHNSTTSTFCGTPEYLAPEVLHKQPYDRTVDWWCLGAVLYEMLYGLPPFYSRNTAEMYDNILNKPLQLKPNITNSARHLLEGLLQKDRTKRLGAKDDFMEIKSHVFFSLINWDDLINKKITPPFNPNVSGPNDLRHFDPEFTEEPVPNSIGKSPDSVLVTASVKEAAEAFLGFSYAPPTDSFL
The experiment is described as follows: Selectivity interaction (KinomeScan (DiscoverX)) EUB0000607a SGK1. Particulars: at 10 µM.

Experiment [6] has as its target Tyrosine-protein kinase CSK (Homo sapiens) (UniProt P41240). The experiment is described as follows: Selectivity interaction (ActivX KiNativ screen (kinase selectivity in THP-1 cell lysates)) EUB0000639a CSK. The format is subcellular. The settings on record: lysate, at 5 µM.
The target in experiment [7] is T2, Cyclin-dependent kinase 11A (Homo sapiens) (UniProt Q9UQ88).
T2 sequence (whole entry): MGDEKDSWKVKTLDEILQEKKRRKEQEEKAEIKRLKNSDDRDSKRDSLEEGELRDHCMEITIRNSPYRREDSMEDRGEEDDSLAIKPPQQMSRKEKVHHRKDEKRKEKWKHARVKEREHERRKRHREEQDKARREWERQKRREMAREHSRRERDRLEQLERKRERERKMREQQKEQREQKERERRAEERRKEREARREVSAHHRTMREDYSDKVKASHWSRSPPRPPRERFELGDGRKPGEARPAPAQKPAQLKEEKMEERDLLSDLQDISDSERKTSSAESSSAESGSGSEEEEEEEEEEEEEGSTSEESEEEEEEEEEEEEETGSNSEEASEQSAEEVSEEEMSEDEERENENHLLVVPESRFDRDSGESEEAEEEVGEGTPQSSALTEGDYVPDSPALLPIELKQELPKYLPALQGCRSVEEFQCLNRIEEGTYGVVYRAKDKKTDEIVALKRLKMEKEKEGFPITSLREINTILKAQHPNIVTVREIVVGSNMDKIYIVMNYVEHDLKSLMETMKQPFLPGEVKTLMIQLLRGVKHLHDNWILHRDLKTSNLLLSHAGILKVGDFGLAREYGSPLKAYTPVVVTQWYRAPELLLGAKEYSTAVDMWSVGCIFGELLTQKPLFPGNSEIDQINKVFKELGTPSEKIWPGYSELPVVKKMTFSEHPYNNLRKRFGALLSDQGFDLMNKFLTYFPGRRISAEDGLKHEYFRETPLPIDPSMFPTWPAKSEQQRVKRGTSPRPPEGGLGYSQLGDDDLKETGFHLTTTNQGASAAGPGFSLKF
Nature of the experiment: Selectivity interaction (KinomeScan (DiscoverX)) EUB0001049a CDK11A. The settings on record: at 1 µM.

For experiment [8], the target named is Protein kinase C theta type (Homo sapiens, UniProt Q04759). Nature of the experiment: Selectivity interaction (KinomeScan (DiscoverX)) EUB0001049a PRKCQ. The settings on record: at 1 µM.
Sequence of Protein kinase C theta type (Q04759 whole entry, looked up): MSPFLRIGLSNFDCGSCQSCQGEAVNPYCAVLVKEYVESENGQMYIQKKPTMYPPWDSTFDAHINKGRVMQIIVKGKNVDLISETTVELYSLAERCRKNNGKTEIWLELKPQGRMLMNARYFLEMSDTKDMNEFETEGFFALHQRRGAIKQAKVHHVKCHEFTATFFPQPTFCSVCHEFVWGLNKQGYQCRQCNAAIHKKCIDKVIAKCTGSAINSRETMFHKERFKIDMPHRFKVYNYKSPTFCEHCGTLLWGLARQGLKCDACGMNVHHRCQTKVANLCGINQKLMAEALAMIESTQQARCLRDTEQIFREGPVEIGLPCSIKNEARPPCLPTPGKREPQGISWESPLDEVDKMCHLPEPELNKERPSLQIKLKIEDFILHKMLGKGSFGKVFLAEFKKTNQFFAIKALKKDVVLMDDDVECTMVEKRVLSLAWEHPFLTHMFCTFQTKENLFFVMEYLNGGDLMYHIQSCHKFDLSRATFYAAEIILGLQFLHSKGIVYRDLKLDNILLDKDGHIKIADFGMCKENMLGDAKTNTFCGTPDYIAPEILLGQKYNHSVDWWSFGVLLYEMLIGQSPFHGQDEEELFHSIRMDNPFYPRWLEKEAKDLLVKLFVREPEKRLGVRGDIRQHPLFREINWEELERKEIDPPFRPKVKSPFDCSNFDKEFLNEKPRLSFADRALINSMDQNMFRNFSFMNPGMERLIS
Experiment [9] addresses Tyrosine-protein kinase Lck (Homo sapiens, UniProt P06239). The experiment is described as follows: Selectivity interaction (Upstate Kinase Profiler service (Millipore)) EUB0000056c LCK. The settings on record: at 1 µM.
In experiment [10] the target is MAP/microtubule affinity-regulating kinase 3 (Homo sapiens) (UniProt P27448). The experiment is described as follows: Selectivity interaction (KinomeScan (DiscoverX)) EUB0000618a MARK3. Particulars: at 10 µM.
Sequence of MAP/microtubule affinity-regulating kinase 3 (Homo sapiens) (P27448 whole entry, looked up): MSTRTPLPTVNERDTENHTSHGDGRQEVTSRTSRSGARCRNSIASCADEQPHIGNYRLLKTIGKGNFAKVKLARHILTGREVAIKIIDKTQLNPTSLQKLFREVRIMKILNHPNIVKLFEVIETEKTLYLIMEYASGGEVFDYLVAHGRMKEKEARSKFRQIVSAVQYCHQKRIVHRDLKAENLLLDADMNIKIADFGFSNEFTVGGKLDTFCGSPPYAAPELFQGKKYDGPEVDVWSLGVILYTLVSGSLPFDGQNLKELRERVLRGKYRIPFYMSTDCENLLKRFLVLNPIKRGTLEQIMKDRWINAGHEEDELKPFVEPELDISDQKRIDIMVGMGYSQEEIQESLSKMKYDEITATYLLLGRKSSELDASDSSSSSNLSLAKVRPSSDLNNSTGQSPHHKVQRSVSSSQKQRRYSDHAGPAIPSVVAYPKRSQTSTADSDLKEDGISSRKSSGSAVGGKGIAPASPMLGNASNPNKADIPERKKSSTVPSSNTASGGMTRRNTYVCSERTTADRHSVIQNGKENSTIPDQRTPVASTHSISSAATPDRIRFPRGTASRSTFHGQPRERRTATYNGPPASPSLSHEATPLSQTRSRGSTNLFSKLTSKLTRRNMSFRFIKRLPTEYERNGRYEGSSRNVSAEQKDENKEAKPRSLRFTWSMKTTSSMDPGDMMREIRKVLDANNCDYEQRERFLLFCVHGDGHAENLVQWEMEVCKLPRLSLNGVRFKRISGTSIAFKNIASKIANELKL
Experiment [11] deals with Tyrosine-protein kinase CSK (Homo sapiens) (UniProt P41240). The experiment is described as follows: Selectivity interaction (KinomeScan (DiscoverX)) EUB0000092b CSK. Particulars: at 10 µM.
Sequence of Tyrosine-protein kinase CSK (Homo sapiens) (P41240 2-450 limits assumed): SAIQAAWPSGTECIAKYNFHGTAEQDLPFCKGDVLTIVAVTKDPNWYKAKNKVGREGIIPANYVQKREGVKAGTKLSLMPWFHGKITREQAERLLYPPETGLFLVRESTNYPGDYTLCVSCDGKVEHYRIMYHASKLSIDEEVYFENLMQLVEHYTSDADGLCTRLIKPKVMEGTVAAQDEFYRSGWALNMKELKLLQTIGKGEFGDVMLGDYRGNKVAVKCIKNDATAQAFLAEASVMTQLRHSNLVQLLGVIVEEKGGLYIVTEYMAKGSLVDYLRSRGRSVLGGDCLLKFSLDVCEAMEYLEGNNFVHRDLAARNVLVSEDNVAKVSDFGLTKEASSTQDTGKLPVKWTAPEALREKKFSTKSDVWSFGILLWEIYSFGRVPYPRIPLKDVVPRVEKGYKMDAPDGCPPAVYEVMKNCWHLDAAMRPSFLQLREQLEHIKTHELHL
The target of experiment [12] is T3, Muscle, skeletal receptor tyrosine-protein kinase (Homo sapiens) (UniProt O15146).
T3 sequence (whole entry): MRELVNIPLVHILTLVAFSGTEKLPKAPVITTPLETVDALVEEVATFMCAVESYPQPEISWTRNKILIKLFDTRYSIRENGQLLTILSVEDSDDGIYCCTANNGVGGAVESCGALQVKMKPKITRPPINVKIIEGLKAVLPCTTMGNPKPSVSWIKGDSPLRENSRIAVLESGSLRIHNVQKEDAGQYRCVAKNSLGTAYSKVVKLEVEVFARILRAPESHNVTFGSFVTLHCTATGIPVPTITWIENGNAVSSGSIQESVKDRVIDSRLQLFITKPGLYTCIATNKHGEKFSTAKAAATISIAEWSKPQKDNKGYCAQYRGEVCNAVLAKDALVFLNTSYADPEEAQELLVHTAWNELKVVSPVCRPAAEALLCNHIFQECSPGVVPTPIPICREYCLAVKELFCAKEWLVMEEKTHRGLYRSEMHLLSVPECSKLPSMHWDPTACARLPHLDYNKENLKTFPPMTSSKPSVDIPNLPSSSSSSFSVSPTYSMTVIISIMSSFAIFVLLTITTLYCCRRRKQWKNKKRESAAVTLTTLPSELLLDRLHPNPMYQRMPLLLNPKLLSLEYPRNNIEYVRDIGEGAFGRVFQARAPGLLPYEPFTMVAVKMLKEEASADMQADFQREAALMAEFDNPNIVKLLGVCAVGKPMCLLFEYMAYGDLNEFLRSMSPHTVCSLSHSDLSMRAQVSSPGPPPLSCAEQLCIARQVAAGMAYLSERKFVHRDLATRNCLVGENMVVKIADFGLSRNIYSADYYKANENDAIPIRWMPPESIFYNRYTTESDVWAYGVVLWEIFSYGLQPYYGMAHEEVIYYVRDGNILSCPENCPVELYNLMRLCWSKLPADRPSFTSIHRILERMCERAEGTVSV
Nature of the experiment: Selectivity interaction (KinomeScan (DiscoverX)) EUB0000092b MUSK. Particulars: at 10 µM.

The target in experiment [13] is Potassium voltage-gated channel subfamily A member 5 (Homo sapiens) (UniProt P22460). Nature of the experiment: Selectivity interaction (Panel of kinases, GPCRs, ion channels and transporters (enzymatic assay)) EUB0000266bCl KCNA5.
Experiment [14] has as its target Calcium/calmodulin-dependent protein kinase kinase 1 (Homo sapiens) (UniProt Q8N5S9). The experiment is described as follows: Selectivity interaction (KinomeScan (DiscoverX)) EUB0000229b CAMKK1. Particulars: at 10 µM.

Bounds are passed on as bounds.

Sequence of Tyrosine-protein kinase Lck (P06239 2-509 limits assumed): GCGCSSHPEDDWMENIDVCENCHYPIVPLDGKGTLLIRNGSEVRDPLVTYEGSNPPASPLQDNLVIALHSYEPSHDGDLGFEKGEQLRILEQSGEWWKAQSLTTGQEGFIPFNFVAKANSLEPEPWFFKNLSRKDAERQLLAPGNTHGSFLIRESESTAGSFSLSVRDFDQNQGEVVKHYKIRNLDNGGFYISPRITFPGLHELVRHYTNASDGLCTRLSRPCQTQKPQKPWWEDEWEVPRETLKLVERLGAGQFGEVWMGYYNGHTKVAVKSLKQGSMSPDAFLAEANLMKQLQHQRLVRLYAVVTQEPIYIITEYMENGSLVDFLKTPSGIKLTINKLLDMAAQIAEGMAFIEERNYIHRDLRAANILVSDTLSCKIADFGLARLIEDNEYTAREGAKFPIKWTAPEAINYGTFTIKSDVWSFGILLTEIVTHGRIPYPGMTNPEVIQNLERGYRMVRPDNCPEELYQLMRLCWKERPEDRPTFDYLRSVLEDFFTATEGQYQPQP
Sequence of Ribosomal protein S6 kinase alpha-3 (P51812 whole entry): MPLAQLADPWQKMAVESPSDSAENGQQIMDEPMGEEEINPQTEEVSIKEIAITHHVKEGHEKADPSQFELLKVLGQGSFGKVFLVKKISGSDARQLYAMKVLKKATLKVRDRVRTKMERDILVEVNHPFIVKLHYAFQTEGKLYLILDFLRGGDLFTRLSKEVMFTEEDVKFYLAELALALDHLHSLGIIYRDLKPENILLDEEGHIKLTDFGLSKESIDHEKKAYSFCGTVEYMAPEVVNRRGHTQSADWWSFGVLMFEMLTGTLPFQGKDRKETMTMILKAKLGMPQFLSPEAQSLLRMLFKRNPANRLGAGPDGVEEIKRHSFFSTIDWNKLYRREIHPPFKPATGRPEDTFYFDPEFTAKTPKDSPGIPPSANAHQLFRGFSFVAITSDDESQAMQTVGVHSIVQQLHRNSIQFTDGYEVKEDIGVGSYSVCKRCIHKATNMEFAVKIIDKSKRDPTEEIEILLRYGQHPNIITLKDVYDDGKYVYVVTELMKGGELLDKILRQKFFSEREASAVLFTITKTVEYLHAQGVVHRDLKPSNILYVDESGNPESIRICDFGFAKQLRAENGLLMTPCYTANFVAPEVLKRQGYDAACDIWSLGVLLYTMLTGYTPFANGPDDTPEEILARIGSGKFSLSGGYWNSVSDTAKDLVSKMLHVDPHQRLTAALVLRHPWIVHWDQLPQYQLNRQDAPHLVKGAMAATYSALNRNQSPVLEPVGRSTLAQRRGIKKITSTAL
Sequence of Calcium/calmodulin-dependent protein kinase kinase 1 (Homo sapiens) (Q8N5S9 whole entry, looked up): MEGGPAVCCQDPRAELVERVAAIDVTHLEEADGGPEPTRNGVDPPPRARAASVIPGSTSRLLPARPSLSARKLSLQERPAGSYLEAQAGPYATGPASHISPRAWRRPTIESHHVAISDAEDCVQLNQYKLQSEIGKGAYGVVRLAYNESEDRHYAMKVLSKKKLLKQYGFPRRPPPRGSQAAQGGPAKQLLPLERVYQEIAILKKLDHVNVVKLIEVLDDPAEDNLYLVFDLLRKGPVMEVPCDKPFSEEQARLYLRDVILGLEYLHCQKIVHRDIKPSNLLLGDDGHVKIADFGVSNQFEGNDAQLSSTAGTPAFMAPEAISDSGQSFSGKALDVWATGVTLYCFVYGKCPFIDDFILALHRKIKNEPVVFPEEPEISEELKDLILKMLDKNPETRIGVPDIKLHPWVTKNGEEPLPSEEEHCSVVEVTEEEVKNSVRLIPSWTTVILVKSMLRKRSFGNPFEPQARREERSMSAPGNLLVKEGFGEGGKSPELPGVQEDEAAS

As for `COCC(=O)NC/C=C/c1ccc2ncnc(Nc3ccc(Oc4ccc(C)nc4)c(C)c3)c2c1` [CP-724714], the % of control in [1] turned out to be 100%.

`N#Cc1cccc(-c2c[nH]c3ncnc(N4CCOCC4)c23)c1` displayed a % of control in experiment [2] of 60%. Also, in experiment [3], the % of inhibition amounted to 13%.

`O=C(NOC[C@H](O)CO)c1ccc(F)c(F)c1Nc1ccc(I)cc1F` registered a % of control in experiment [4] of 100%.

For the molecule `CNC(=O)Nc1ccc(-c2nc(N3CC4CCC(C3)O4)c3cnn(C4CCC5(CC4)OCCO5)c3n2)cc1`, the % of control in [5] amounted to 100%.

As for `CC[C@@H]1[C@H](F)C(=O)N[C@@H]1COc1nccc2cc(C(N)=O)c(OC)cc12` [ZIMLOVISERTIB], the % of inhibition in experiment [6] was -2.6%.

On to `COc1cc(Nc2nc(C)cc(-c3cnn4nc(OC)ccc34)n2)cc(C(F)(F)F)c1`, for which the % of control in experiment [7] worked out at 83%; in experiment [8] it was 94%.

`Cc1ccc(-c2ccc3c(ccc4sc5c(c43)NC[C@@H](C)NC5=O)n2)cn1`: in experiment [9], the % of inhibition is -3%.

In experiment [10], `O[C@H]1CC[C@H](Nc2ncc3nc(Nc4c(F)cc(F)cc4F)n([C@H]4CCOC4)c3n2)CC1` displayed a % of control of 97%.

On to `CCC(=O)N1CCN(c2ccc(-n3c(=O)ccc4cnc5ccc(-c6cnc7ccccc7c6)cc5c43)cc2C(F)(F)F)CC1`, for which the % of control worked out at 71% in experiment [11] and 100% in [12].

Consider `CCn1c(-c2nc3cc(C(=O)N4CCCC(N)C4)ccc3n2C)cc2ccccc21` (centres undefined), for which the pXC50 in experiment [13] was less than 4.3 M.

As to `COc1cc(N(C)c2ccnc3ccc(C(F)(F)F)cc23)cc(OC)c1OC`, the % binding in experiment [14] was determined as 97%.
